In US7645610B2, “Hepatocyte precursor cell lines” (Massachusetts Institute of Technology, priority 2002, dated 2010):

What was measured:
Format in all cases: cell-based, rat
[1] = system: Lig-4 cells; assay: Colony formation efficiency, Lig-4
[2] = system: Lig-13 cells; assay: Daughter pair analysis (DPA), Lig-13; conditions: independent of Xs concentration
Experimental: (§1) Into 10-cm diameter culture dishes, an estimated 1750 cells were plated in DMEM-10% dFBS, supplemented at the Xs concentration used for derivation, and cultured for 16 hours. Medium was then replaced with either Xs-free medium or medium containing 100 μM Xs, and cells were cultured for an additional 48 h (GT=60 h). Bromo-5-deoxyuridine (BrdU) was then added to the cultures to a concentration of 5 μM for 5 hours. Detection of incorporated BrdU was performed using primary antibody Bu1-75 (Harlan), and a biotinylated secondary antibody (Vector Laboratories) with avidin-fluorescein visualization. Nuclei were detected by staining with 0.5 μg/ml DAPI (Molecular Probes). Images were captured using a Nikon TE300 microscope, Orca camera, and Openlab software (Improvision). The assay is called a “daughter pair analysis” (DPA). To perform the DPA, cells were plated in Xs-containing medium at microcolony density. After allowing 4 to 5 hours for cell adherence, parallel cultures were replaced with fresh medium that was either Xs-supplemented or Xs-free. After allowing time for cell divisions to produce “daughter pairs”, the cells were cultured for 4 hours with the thymidine analogue bromodeoxyuridine (BrdU). Cells were then fixed and evaluated for BrdU incorporation by in situ immunofluorescence.

[3] = system: Lig-8 cells; assay: Differentiation marker expression, Xs-free vs Xs-supplemented, Lig-8; parameters: key: −: no expression detected; +/−: weak expression; +: expression detected; !: increased expression in Xs-free conditions; *: no increased expression in Xs-free conditions
[4] = system: Lig-3 cells; assay: Colony formation efficiency, Lig-3
[5] = system: Lig-1 cells; assay: Differentiation marker expression, Xs-free conditions, Lig-1; parameters: key: −: no expression detected; +/−: weak expression; +: expression detected; !: increased expression in Xs-free conditions; *: no increased expression in Xs-free conditions; conditions: in situ immunofluorescence, confluent growth arrest in 1% serum 1-2 weeks
[6] = system: Lig-7 cells; assay: Colony formation efficiency, Lig-7
[7] = system: Lig-8 cells; assay: Daughter pair analysis (DPA), Lig-8; conditions: Xs added, 16% in the absence of Xs, n=58 pairs
Experimental: as §1

[8] = system: Lig-1 cells; assay: Colony formation efficiency, Lig-1
[9] = system: Lig-9 cells; assay: Fc(t) assay for asymmetric cell kinetics, Lig-9
Experimental: To initiate the assay, 100 cells were plated in 75-cm^2 flasks. After a 16-hour growth period, pairs of new daughter cells were identified under the microscope, and their positions marked for serial examination. Thereafter, the marked microcolonies were examined at roughly ⅓ GT intervals for at least 2 generations. At each examination, the fraction of cells that divided during the previous interval was calculated as described (Sherley et al., 1995a). The estimated cell GT of examined lines was determined simultaneously as described (Sherley et al., 1995ab).
A previously described serial colony formation analyses (the “Fc[t] assay”; Sherley et al., 1995a) was used to quantify the degree of asymmetric cell kinetics by Xs-derived cell lines. The Fc(t) assay quantifies the accumulation rate of cells in micro-colonies examined by serial phase microscopy at intervals of less than one GT from the 2-cell stage (Sherley et al., 1995a). Fc(t) is calculated by summing the fractions of dividing cells determined in each interval and dividing by the total number of GTs examined. When cells divide with symmetric kinetics, the value of Fc(t) approaches 1.0, regardless of the length of the examination period. For asymmetric kinetics, in which one non-dividing daughter is produced at each cell division, Fc(t) is a declining flnction that approaches […] with increasing exam time. […]

[10] = system: Lig-2 cells; assay: Colony formation efficiency, Lig-2
[11] = system: Xs-derived cell lines; assay: Colony formation efficiency, Xs-derived lines as a group; conditions: n=8
Excerpt: There was a marked difference in the cell kinetics properties of early passage conventional lines (Lig-1 to -3 in Table 1) and Xs-derived lines (Lig-4 to -15 in Table 1). […] The estimated mean increase in colony formation efficiency for Xs-derived cell lines in Xs-supplemented medium was 11-fold (n=8), ranging from a 10% increase to a 40-fold increase (Lig-13 in Table 1; p<0.0001). The growth of conventional cell lines was unaffected by Xs even when the Xs concentration was doubled (data not shown). [table]

[12] = system: Lig-8 cells; assay: Colony formation efficiency, Lig-8
[13] = system: Lig-15 cells; assay: Colony formation efficiency, Lig-15
[14] = system: Lig-14 cells; assay: Colony formation efficiency, Lig-14
[15] = system: Lig-13 cells; assay: Differentiation marker expression, Xs-free vs Xs-supplemented, Lig-13; parameters: key: −: no expression detected; +/−: weak expression; +: expression detected; !: increased expression in Xs-free conditions; *: no increased expression in Xs-free conditions
Experimental: To prepare cell lysates, cells were cultured until 95% confluent. After washing once with ice cold PBS, the cells were solubilized on ice in ice-cold lysis buffer (RIPA buffer; Hinds et al., 1987). The cell lysates were clarified by centrifugation at 13,000 rpm (Eppendorf™ microfuge) for 30 minutes at 4°0 C. and stored at −70°0 C. until further analysis. Soluble protein in lysates was quantified using the Bio-Rad DC™ assay. Twenty micrograms of cell lysates or 25 μl of culture medium samples were separated by SDS-PAGE (8-12% polyacrylamide) and analyzed for specific proteins by the following immunoblot procedure. Electrophoresed proteins were transferred to Hybond ECL membranes in Tris-Glycine-Methanol buffer (25 mM Tris-HCl, pH 7.5, 190 mM glycine, 20% methanol) for 1 hour at 100 volts at room temperature. Membranes were then stained with Ponceau S (0.5%) to verify uniform protein transfer and then blocked with Tris-buffered saline, 5% non-fat dried milk, 0.1% Tween-20 at room temperature for 1 hour. Following three 10-minute washes at room temperature in Tris-buffered saline, 0.1% Tween-20, the membranes were incubated with the specific primary antibodies diluted appropriately in Tris-buffered saline, 1% milk, 0.1% Tween-20 for 12-15 hours at 4° C. For albumin detection, membranes were incubated with an anti-albumin-HRP antibody (EY Laboratories) for 1 hour at room temperature. After removal of the unbound antibodies with three 10-minute washes in Tris-buffered saline-0.1% Tween-20, the membranes (except for albumin detection) were incubated with the anti-goat-HRP (1:2000) or anti-mouse HRP (1:5000) for 1 hour at room temperature. After three 10-minute washes with Tris-buffered saline-0.1% Tween-20, specifically bound HRP-conjugated antibodies were detected using the Amersham Enhanced Chemiluminescence Plus™ system. To re-probe a membrane with a different antibody, it was first incubated for 2.5 h in 0.1M glycine (pH 2.5) at room temperature. Immunohistochemical staining was performed with HRP-conjugated secondary antibodies as recommended by the supplier of primary detection antibodies. [table]

[16] = system: Lig-9 cells; assay: Colony formation efficiency, Lig-9
[17] = system: Lig-3 cells; assay: Differentiation marker expression, Xs-free conditions, Lig-3; parameters: key: −: no expression detected; +/−: weak expression; +: expression detected; !: increased expression in Xs-free conditions; *: no increased expression in Xs-free conditions; conditions: in situ immunofluorescence, confluent growth arrest in 1% serum 1-2 weeks
[18] = system: Lig-6 cells; assay: Colony formation efficiency, Lig-6
[19] = system: conventional cell lines; assay: Growth of conventional cell lines with Xs; conditions: even when the Xs concentration was doubled (data not shown)
Excerpt: There was a marked difference in the cell kinetics properties of early passage conventional lines (Lig-1 to -3 in Table 1) and Xs-derived lines (Lig-4 to -15 in Table 1). […] The estimated mean increase in colony formation efficiency for Xs-derived cell lines in Xs-supplemented medium was 11-fold (n=8), ranging from a 10% increase to a 40-fold increase (Lig-13 in Table 1; p<0.0001). The growth of conventional cell lines was unaffected by Xs even when the Xs concentration was doubled (data not shown).

[20] = system: Lig-13 cells; assay: Colony formation efficiency, Lig-13
[21] = in situ immunofluorescence, confluent growth arrest in 1% serum 1-2 weeks
[22] = 50 μM xanthosine, 200 cells per well, 14 days
[23] = colony formation efficiency, 50 μM xanthosine vs Xs-free

## O=c1[nH]c(=O)c2ncn([C@@H]3O[C@H](CO)[C@@H](O)[C@H]3O)c2[nH]1 [Xs, Xanthosine]
[1]; Lig-4 (derived in 400 μM Xs), 50 μM xanthosine, 200 cells per well, 14 days
  Colony formation efficiency Xs+ (Mean % ± SD; n = 6): 8.0 ± 1.1%
[1]; Lig-4, colony formation efficiency, 50 μM xanthosine vs Xs-free
  Xs+/Xs− Ratio: 1.5
[2]
  fraction of symmetric BrdU(+) daughter pairs: 76%
[3]; immunoblot
  Albumin (ALB) expression, change in Xs-free conditions: +!
  Cytokeratin 7 (CK7) expression, change in Xs-free conditions: +*
  α1-Antitrypsin (AAT) expression, change in Xs-free conditions: +!
  α-Fetoprotein (AFP) expression, change in Xs-free conditions: +!
[3]; [21]
  H.4 expression, change in Xs-free conditions: +!
[4]; [22]
  Colony formation efficiency Xs+ (Mean % ± SD; n = 6): 18 ± 3.7%
[4]; [23]
  Xs+/Xs− Ratio: 1.0
[5]
  H.4 expression, change in Xs-free conditions: +*
[6]; Lig-7 (derived in 400 μM Xs), 50 μM xanthosine, 200 cells per well, 14 days
  Colony formation efficiency Xs+ (Mean % ± SD; n = 6): 6.7 ± 2.2%
[6]; Lig-7, colony formation efficiency, 50 μM xanthosine vs Xs-free
  Xs+/Xs− Ratio: ≧22
[7]
  fraction of double-BrdU(+) daughter pairs: 76%
[8]; [22]
  Colony formation efficiency Xs+ (Mean % ± SD; n = 6): 9.8 ± 2.2%
[8]; [23]
  Xs+/Xs− Ratio: 0.9
[9]; 100 μM Xs
  effect of Xs on terminal division fraction: did not significantly affect
[9]; Xs+, 2-cell microcolonies with no division in 5 days, Xs− 0.58
  Terminal Division Fraction: 0.47
[10]; [22]
  Colony formation efficiency Xs+ (Mean % ± SD; n = 6): 29 ± 3.7%
[10]; [23]
  Xs+/Xs− Ratio: 1.0
[11]
  estimated mean increase in colony formation efficiency in Xs-supplemented medium: 11 fold
[12]; Lig-8 (derived in 400 μM Xs), 50 μM xanthosine, 200 cells per well, 14 days
  Colony formation efficiency Xs+ (Mean % ± SD; n = 6): 22 ± 3.6%
[12]; Lig-8, colony formation efficiency, 50 μM xanthosine vs Xs-free
  Xs+/Xs− Ratio: 17
[13]; Lig-15 (derived in 200 μM Xs), 50 μM xanthosine, 200 cells per well, 14 days
  Colony formation efficiency Xs+ (Mean % ± SD; n = 6): 10 ± 1.6%
[13]; Lig-15, colony formation efficiency, 50 μM xanthosine vs Xs-free
  Xs+/Xs− Ratio: 5.3
[14]; Lig-14 (derived in 200 μM Xs), 50 μM xanthosine, 200 cells per well, 14 days
  Colony formation efficiency Xs+ (Mean % ± SD; n = 6): 0.4 ± 0.67%
[14]; Lig-14, colony formation efficiency, 50 μM xanthosine vs Xs-free
  Xs+/Xs− Ratio: 1.3
[15]; immunoblot
  Albumin (ALB) expression, change in Xs-free conditions: +*
  Cytokeratin 7 (CK7) expression, change in Xs-free conditions: +!
  α1-Antitrypsin (AAT) expression, change in Xs-free conditions: +/−*
  α-Fetoprotein (AFP) expression, change in Xs-free conditions: +*
[15]; [21]
  H.4 expression, change in Xs-free conditions: +/−*
[16]; Lig-9 (derived in 400 μM Xs), 50 μM xanthosine, 200 cells per well, 14 days
  Colony formation efficiency Xs+ (Mean % ± SD; n = 6): 11 ± 2.6%
[16]; Lig-9, colony formation efficiency, 50 μM xanthosine vs Xs-free
  Xs+/Xs− Ratio: 1.1
[17]
  H.4 expression, change in Xs-free conditions: +/−*
[18]; Lig-6 (derived in 400 μM Xs), 50 μM xanthosine, 200 cells per well, 14 days
  Colony formation efficiency Xs+ (Mean % ± SD; n = 6): 5.3 ± 1.8%
[18]; Lig-6, colony formation efficiency, 50 μM xanthosine vs Xs-free
  Xs+/Xs− Ratio: 1.4
[19]
  growth of conventional cell lines with Xs: unaffected
[20]; Lig-13 (derived in 200 μM Xs), 50 μM xanthosine, 200 cells per well, 14 days
  Colony formation efficiency Xs+ (Mean % ± SD; n = 6): 12 ± 2.7%
[20]; Lig-13, colony formation efficiency, 50 μM xanthosine vs Xs-free
  Xs+/Xs− Ratio: 40
[20]; Lig-13, p<0.0001
  increase in colony formation efficiency in Xs-supplemented medium: 40 fold
